Assay results taken from PMC9304723 (Heliyon, 2022).

Legend:
OATP2B1 [1] = biological target: T1, OATP2B1 (Homo sapiens, UniProt O94956); conditions: read-out: IC50, reduction of influx of substrates of OATP2B1; cited from earlier work
T1 sequence (O94956 1-709): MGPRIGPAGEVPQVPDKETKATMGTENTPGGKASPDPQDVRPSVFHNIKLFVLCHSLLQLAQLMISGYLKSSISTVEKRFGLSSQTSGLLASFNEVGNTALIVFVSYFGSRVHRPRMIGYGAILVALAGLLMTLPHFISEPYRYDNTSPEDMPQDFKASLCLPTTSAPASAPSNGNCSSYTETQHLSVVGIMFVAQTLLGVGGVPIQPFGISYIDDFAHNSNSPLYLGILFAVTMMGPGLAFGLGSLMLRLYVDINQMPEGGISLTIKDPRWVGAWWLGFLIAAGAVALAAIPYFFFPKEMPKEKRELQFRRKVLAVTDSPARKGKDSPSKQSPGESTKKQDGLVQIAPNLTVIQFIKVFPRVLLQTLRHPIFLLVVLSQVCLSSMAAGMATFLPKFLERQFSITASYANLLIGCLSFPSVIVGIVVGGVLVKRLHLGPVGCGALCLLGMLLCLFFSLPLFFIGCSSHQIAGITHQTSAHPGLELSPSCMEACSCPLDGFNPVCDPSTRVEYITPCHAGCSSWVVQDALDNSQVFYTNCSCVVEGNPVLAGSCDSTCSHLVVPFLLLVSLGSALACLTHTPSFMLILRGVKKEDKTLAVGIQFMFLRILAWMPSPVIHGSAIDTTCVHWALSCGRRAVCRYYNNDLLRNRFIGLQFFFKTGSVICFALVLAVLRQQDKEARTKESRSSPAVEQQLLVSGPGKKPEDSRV

P-glycoprotein (Pgp) = P-glycoprotein (Pgp) (Homo sapiens, UniProt P08183); assay: Caco-2 transport of CA with Pgp inhibitor GF120918; assay type: in vitro ADME; conditions: 2 μM GF120918
OATP2B1 [2] = biological target: T1, OATP2B1; assay: Caco-2 transport of CA with OATP2B1 inhibitor baicalin; assay type: in vitro ADME; conditions: 6 μM baicalin

P-glycoprotein (Pgp), sequence (P08183 whole entry): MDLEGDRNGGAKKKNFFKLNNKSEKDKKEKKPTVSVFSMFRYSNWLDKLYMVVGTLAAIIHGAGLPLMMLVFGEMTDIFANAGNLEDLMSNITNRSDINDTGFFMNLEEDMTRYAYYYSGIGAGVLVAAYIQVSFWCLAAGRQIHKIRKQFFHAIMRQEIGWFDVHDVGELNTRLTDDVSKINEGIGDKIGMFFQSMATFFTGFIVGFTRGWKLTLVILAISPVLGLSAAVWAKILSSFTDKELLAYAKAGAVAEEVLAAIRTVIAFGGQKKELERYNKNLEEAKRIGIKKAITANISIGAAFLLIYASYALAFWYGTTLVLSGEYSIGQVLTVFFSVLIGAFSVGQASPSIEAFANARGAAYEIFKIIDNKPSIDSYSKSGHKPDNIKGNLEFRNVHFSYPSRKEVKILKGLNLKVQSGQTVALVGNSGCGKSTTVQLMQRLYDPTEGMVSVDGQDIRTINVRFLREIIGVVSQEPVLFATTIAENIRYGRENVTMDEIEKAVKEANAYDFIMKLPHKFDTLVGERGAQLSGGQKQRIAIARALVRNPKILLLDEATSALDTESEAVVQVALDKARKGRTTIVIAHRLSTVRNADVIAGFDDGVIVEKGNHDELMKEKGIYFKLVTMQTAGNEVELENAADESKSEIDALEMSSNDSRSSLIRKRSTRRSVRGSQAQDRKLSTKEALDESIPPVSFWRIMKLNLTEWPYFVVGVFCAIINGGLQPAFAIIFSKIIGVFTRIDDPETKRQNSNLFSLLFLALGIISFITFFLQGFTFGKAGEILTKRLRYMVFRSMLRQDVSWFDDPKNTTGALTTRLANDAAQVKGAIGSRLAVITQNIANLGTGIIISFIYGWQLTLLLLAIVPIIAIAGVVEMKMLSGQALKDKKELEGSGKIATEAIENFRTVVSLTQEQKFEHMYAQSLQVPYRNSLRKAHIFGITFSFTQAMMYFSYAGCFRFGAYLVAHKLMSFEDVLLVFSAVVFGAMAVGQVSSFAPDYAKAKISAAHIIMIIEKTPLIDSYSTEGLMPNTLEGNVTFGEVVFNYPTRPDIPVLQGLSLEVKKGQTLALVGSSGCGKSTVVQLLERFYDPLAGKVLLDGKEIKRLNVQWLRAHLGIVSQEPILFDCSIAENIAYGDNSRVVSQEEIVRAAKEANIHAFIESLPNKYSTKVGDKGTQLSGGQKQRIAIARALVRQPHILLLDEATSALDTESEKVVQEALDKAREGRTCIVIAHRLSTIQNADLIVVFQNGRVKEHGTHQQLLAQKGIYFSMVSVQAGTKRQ

Compound	IC50 (OATP2B1 [1])	Decrease of Papp B–A after GF120918 treatment (P-glycoprotein (Pgp))	Decrease of Papp B–A after baicalin treatment (OATP2B1 [2])
O=C(O)[C@H]1O[C@@H](Oc2cc3oc(-c4ccccc4)cc(=O)c3c(O)c2O)[C@H](O)[C@@H](O)[C@@H]1O [baicalin]	5.6 ± 3.2 µM	–	–
Chicoric acid [CA]	–	62%	63%
